From patent US8822494B2 (Pfizer Inc., priority 2012, dated 2014)
pEC50: −log10 of the molar value.

Key:
Human D1 [1] = target: T1, Human D1 (Homo sapiens (Human), UniProt P21728); assay: Human D1 Receptor Binding Assay ([3H]-SCH23390 competition); settings: read-out: Human D1 Receptor Binding, Ki (μM); Geometric mean of 2-3 determinations; over-expressing LTK human cell lines, 0.5 nM [3H]-SCH23390, 30 min at 37° C.; footnote b = single determination, c = geometric mean of ≧4 determinations
Description: D1 binding assays were performed using over-expressing LTK human cell lines. […] These ligand and tissue concentrations were used in time course studies to determine linearity and equilibrium conditions for binding. […] The pellet was resuspended in assay buffer [50 mM Tris (pH 7.4@ RT) containing 4 mM MgSO4 and 0.5 mM EDTA]. […] Non-specific binding was determined by radioligand binding in the presence of a saturating concentration of (+)-Butaclamol (10 μM), a D1 antagonist. After a 30 minute incubation period at 37° C., assay samples were rapidly filtered through Unifilter-96 GF/B PEI-coated filter plates and rinsed with 50 mM Tris buffer (pH 7.4 at 4° C.). […] Ki values were calculated according to the Cheng-Prusoff equation: […]

Human D1 [2] = target: T1, Human D1; assay: D1 cAMP HTRF Assay; type: cell-based; settings: HEK293T/hD1#1 stable cell line, 30 min at room temperature; footnote a = geometric mean of ≧7 determinations
Source text: This assay was used to determine the ability of a test compound to agonize (including partially agonize) D1. A Mab anti-cAMP labeled Cryptate visualizes the tracer. […] The signal, therefore, is inversely proportional to the concentration of cAMP in the sample.
The cAMP Dynamic kit was obtained from Cisbio International (Cisbio 62AM4PEJ). Multidrop Combi (Thermo Scientific) was used for assay additions. An EnVision (PerkinElmer) reader was used to read HTRF.
A HEK293T/hD1#1 stable cell line was constructed internally (Pfizer Ann Arbor).
Media was removed and cell pellet was re-suspended in PBS/[…] generating 2e5 cells/mL. […] Working solutions of cAMP-D2 and anti-cAMP-cryptate were prepared according to Cisbio instructions. […] The assay plate was incubated for 1 hour at room temperature. The assay plate was read on an EnVision plate reader using Cisbio recommended settings.
Data analysis was done using computer software. Percent effects were calculated from the compound controls. Ratio EC50 was determined using the raw ratio data from the EnVision reader. The cAMP standard curve was used in an analysis program to determine cAMP concentrations from raw ratio data. cAMP EC50 was determined using the calculated cAMP data.

T1 sequence (P21728 whole entry): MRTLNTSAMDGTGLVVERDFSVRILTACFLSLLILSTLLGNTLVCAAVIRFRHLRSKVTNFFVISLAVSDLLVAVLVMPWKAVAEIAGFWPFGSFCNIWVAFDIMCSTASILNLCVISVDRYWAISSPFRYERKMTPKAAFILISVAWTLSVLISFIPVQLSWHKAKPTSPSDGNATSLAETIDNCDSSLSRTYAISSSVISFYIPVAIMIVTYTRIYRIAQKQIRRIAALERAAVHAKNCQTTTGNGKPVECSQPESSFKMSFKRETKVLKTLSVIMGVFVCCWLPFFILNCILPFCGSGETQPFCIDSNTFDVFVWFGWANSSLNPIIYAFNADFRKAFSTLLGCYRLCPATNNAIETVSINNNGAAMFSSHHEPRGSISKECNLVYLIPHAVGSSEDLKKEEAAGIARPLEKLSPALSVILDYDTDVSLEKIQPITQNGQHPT

Ki (Human D1 [1]): 0.0975 µM
pEC50 (Human D1 [2]): 6.38
Structure (SMILES): Cc1cc(Oc2nccc3[nH]ccc23)ccc1-c1cncc2nccn12 [Example 15, 5-[2-methyl-4-(1H-pyrrolo[3,2-c]pyridin-4-yloxy)phenyl]imidazo[1,2-a]pyrazine]
